Source: patent US9914969B2, “Fads regulation” (CORNELL UNIVERSITY, priority 2012, dated 2018)
“Also recorded” adds a separate entry of the source.

Assays:
[1] = system: FADS2 expression; test: FADS2 expression in lymphoblasts after drug treatment (qRT-PCR); type: cell-based, human; conditions: 24 hours
Experimental: Immortalized B-lymphocyte (lymphoblast) cell lines from Japanese HapMap participants were obtained from the Coriell Institute for Medical Research, and used within 10 passages of receipt from the repository. Cells were grown in RPMI 1640 with 2 mM L-alanyl-glutamine (Sigma) and 15% fetal bovine serum (media and serum obtained from HyClone) in a humidified environment at 37° C. with 5% CO2. All experiments were conducted on cells grown and treated in parallel in identical media and growth conditions. […]
Quantitative real-time PCR was carried out using SYBR Green Master Mix (Roche) on a LightCycler 480 instrument (Roche). PCR primers were obtained from Integrated DNA Technologies (sequences available upon request), except for 18S, which was obtained from Qiagen as a QuantiTect Primer Assay. PCR reaction efficiency was calculated from standard curves, and reactions were assessed by both melting curves and by running on agarose gels to verify reaction products and the absence of primer-dimers. Quantitative cycle (Cq) values were determined using LightCycler 480 SW1.5.0SP3 software, version 1.5.0.39 (Roche). […] Statistical significance of differences in fold changes between genotypes in response to cell treatments (normalized to vehicle treatment for each genotype) was assessed by the Mann-Whitney U test. […]

[2] = system: FADS1 expression; test: FADS1 expression in lymphoblasts after drug treatment (qRT-PCR); type: cell-based, human; conditions: 24 hours; for FADS1 response to drug, D/D vs I/I haplotype homozygotes (in words): lymphoblasts, 1 μNI GW3965, 20 μM rosiglitazone
Experimental: Immortalized B-lymphocyte (lymphoblast) cell lines from Japanese HapMap participants were obtained from the Coriell Institute for Medical Research, and used within 10 passages of receipt from the repository. Cells were grown in RPMI 1640 with 2 mM L-alanyl-glutamine (Sigma) and 15% fetal bovine serum (media and serum obtained from HyClone) in a humidified environment at 37° C. with 5% CO2. All experiments were conducted on cells grown and treated in parallel in identical media and growth conditions. […] RNA was extracted using the RNeasy kit (Qiagen), and RNA quality was checked by agarose gel electrophoresis to verify RNA integrity and by 260/280 nm ratios on a NanoDrop 2000 (Thermo Scientific). cDNA was prepared using the High Capacity cDNA Reverse Transcription Kit (Applied Biosystems) according to the manufacturer's protocol.
Quantitative real-time PCR was carried out using SYBR Green Master Mix (Roche) on a LightCycler 480 instrument (Roche). PCR primers were obtained from Integrated DNA Technologies (sequences available upon request), except for 18S, which was obtained from Qiagen as a QuantiTect Primer Assay. PCR reaction efficiency was calculated from standard curves, and reactions were assessed by both melting curves and by running on agarose gels to verify reaction products and the absence of primer-dimers. Quantitative cycle (Cq) values were determined using LightCycler 480 SW1.5.0SP3 software, version 1.5.0.39 (Roche). […] Statistical significance of differences in fold changes between genotypes in response to cell treatments (normalized to vehicle treatment for each genotype) was assessed by the Mann-Whitney U test. Bootstrapping and randomization techniques were used in REST 2009 software (Qiagen) to calculate significance of fold changes normalizing both genotypes to basal expression in I/I allele homozygotes.
Follow-up experiments were carried out in Japanese HapMap lymphoblast cell lines homozygous for the D/D haplotype associated with FADS1 expression, or homozygous for the I/I haplotype. All available D/D haplotype homozygote cell lines were used (n=5), as well as randomly chosen I/I allele homozygote cell lines (n=11).
To investigate the possibility of a causal genetic variation in a transcription factor binding site, cells were treated with drugs acting directly or indirectly on PPARγ or SREBP-1c.

[3] = 5 μNI simvastatin, normalized to vehicle

Row | SMILES | FADS2 response to treatment (in words) ([1]; I/I and D/D lymphoblasts, 20 μM rosiglitazone) | FADS1 response to drug, D/D vs I/I haplotype homozygotes (in words) [2, 3] | FADS2 expression increase in D/D haplotype homozygotes compared with I/I (in words) ([1]; lymphoblasts, normalized to vehicle) | upregulation (induction) of FADS1 higher for the D/D haplotype than for I/I ([2]; D/D vs I/I haplotype homozygote lymphoblasts, 5 μNI simvastatin, 1 μNI GW3965) [%] | final FADS1 expression after treatment, difference between genotypes (in words) ([2]; D/D vs I/I lymphoblasts, normalized to basal I/I expression) | upregulation of FADS1 ([2]; I/I haplotype homozygote lymphoblasts, 5 μNI simvastatin, 1 μNI GW3965, normalized to vehicle)
1 | CN(CCOc1ccc(CC2SC(=O)NC2=O)cc1)c1ccccn1 (stereo not shown) [rosiglitazone] | no response | no response |  |  |  | 
2 | O=C(O)Cc1cccc(OCCCN(Cc2cccc(C(F)(F)F)c2Cl)CC(c2ccccc2)c2ccccc2)c1 [GW3965] |  | significantly greater fold increase | even more | 25 | did not significantly differ; also recorded: no longer significantly different | about two
